The values below come from patent publication US7544700B2, “Pharmaceutically active sulfonamide derivatives bearing both lipophilic and ionisable moieties as inhibitors of protein JunKinases” (Laboratoires Serono SA, priority 2000, dated 2009).

The test system of test [1] is Hela luciferase reporter-c-Jun (HLR-c-Jun) cell lines. Description: C-Jun reporter assay. It counts as cell-based. Conditions: Homo sapiens, MEKK-1 transfected HLR-c-Jun cells. An excerpt:
The phosphorylation of the transcriptional factor, c-jun, by JNK in the MAP kinase signal transduction pathway can be followed via a trans-reporting system such as the commercially available PathDetect® (32).
A trans-reporting system allows one to follow, via Luciferase activity, the activation status of a fusion trans-activator protein. The trans-activator protein consists of the activation domain of the transcriptional factor of interest (c-jun) fused with a yeast transcriptional activator, GAL4 DNA binding domain (dbd). The GAL4 dbd has the advantage that no known mammalian transcriptional factors can bind to it and therefore the background noise of the assay is very low.
In the present case, Hela luciferase reporter-c-Jun (HLR-c-Jun) cell lines which constitutively express GAL4-cJun were used.
The MEKK-1 gene was inserted. MEKK-1 is a MAPKKK which triggers the activation of JNK. Expression of wild type MEKK-1 is sufficient for JNK activation (33).
Once, JNK is activated it can induce the phosphorylation of the c-jun domain of the fusion trans-activator protein (GAL4dbd-cJun) which forms a dimer. The dimer is then is able to bind to a GAL4 upstream activating sequence (GAL4 UAS) of the reporter which activates Luciferase expression.
Luciferase expression is detected by luminescence using a simple assay such as Dual-Luciferase® Reporter Assay System (34) in which Renilla is used as a “control reporter”.
Inhibition of JNK is observed as a decrease in Luciferase expression and detected by a decrease in luminescence.
HLR-c-Jun cells are cultured in DMEM High Glc supplemented with 10% FCS (Sigma), 2 mM Glutamine (Gibco), P/S, Hygromycin b 100 μg/mL and G418 250 μg/mL.
The cell suspensions are diluted with medium to give about 3.5×10^6 cells/mL and […] of cell suspension are put onto 2 10 cm culture dishes containing 9 mL of culture medium.
Transfections • Control: 0.2 μg pTK Renilla, 5.8 μg pBluescript KS, 500 μl OPTIMEM (GOBCO), 18 μl Fugene 6. • Induced: 0.1 μg pMEKK1, 0.2 μg pTK Renilla, 5.7 μg pBluescript KS, 500 μl OPTIEM (GIBCO), 18 μl Fugene 6 30′ RT.
The transfection mixture is added to the plated cells. The plates are incubated over night at 37° C. in a humidified atmosphere of 5% CO2 in air.
A 96 wells plate (100 μl of culture medium per well) is prepared. Negative control (vehicle): 2 μl of DMSO is added to the 100 μl (in triplicate). […]
The medium is removed from the plate and the cells are washed two times with 100 μl PBS. […] The luminometer reading is recorded.
−50 μl of Luciferase Assay Reagent II are injected and readings are recorded at 5 and 10 minutes.
50 μl of Stop & Glo® Reagent are injected and readings are recorded at 5 and 10 minutes.
The relative luminescence is then measured: RLU Luciferase/RLU Renilla.

The target of the next test is GST-JNK3 (Homo sapiens, UniProt P53779). Description: JNK3 in vitro assay (33P incorporation into c-jun, SPA). Format: biochemical. As for the experimental part:
The phosphorylation of c-jun by JNK2 or JNK3 may be followed by monitoring the incorporation of ^33P into c-jun following the protocol below. The inhibitory activity of the compounds according to formula I, in respect of c-jun phosphorylation through JNK, is determined by calculating the phosphorylation activity of a JNK in the presence or absence of the test compounds according to formula I.
JNK3 and/or -2 assays are performed in 96 well NM plates: incubation of 0.5 μg of recombinant, pre-activated GST-JNK3 or GST-JNK2 with 1 μg of recombinant, biotinylated GST-c-Jun and 2 μM ^33γ-ATP (2 nCi/μl), in the presence or absence of compounds according to formula I and in a reaction volume of 50 μl containing 50 mM Tris-HCl, pH 8.0; 10 mM MgCl2; 1 mM Dithiothreitol, and 100 μM NaVO4. The incubation is performed for 120 min. at R.T and stopped upon addition of 200 μl of a solution containing 250 μg of Streptavidine-coated SPA beads (Amersham, Inc.)*, 5 mM EDTA, 0.1% Triton X-100 and 50 μM ATP, in phosphate saline buffer. After incubation for 60 minutes at RT, beads are sedimented by centrifugation at 1500×g for 5 minutes, resuspended in 200 μl of PBS containing 5 mM EDTA, 0.1% Triton X-100 and 50 μM ATP and the radioactivity measured in a scintillation β counter, following sedimentation of the beads as described above. By replacing biotinylated GST-c Jun with biotinylated GST-1ATF2 or biotinylated myelin basic protein, this assay may also be used to measure inhibition of pre-activated p38 and ERK MAP Kinases, respectively.

Where only a bound is given, the exact number is not on record here.

Chain of GST-JNK3 (P53779 whole entry): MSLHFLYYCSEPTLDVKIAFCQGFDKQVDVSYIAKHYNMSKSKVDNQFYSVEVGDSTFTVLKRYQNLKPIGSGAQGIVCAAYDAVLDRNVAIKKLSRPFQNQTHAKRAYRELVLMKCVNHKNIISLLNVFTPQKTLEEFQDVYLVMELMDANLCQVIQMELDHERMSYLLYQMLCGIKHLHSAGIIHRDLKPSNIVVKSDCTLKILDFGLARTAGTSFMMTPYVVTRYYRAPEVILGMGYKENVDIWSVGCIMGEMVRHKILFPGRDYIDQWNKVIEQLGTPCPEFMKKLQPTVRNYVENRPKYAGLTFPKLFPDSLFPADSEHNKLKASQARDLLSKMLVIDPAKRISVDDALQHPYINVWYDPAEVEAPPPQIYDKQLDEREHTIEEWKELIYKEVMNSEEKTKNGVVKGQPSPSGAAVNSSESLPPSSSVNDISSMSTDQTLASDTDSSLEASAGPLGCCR

`COc1cccc(C(=O)NCc2ccc(S(=O)(=O)N3CCC(NCc4ccc(C(F)(F)F)cc4)CC3)s2)c1` [Example 1, 3-Methoxy-N-{[5-({4-[(4-trifluoromethylbenzyl)amino]piperidin-1-yl}sulfonyl)thien-2-yl]methyl}benzamide]: the IC50 in test [1] was < 700 nM; against GST-JNK3, < 600 nM.
